pIC50: −log10 of the molar value.
Legend:
[1] = target: T1, human CD73 (Homo sapiens, UniProt P21589); test: Inhibition of 5′-Nucleotidase Activity of CD73 (Assay 1); assay type: biochemical; settings: human CD73 4 ng/ml, 50 μM CMP, 20 min at RT, malachite green readout; read-out: Assay 1: IC50, inhibition of 5′-nucleotidase activity of CD73
T1 construct: purchased R&D Systems 5795-EN-010
T1 sequence (P21589 27-549): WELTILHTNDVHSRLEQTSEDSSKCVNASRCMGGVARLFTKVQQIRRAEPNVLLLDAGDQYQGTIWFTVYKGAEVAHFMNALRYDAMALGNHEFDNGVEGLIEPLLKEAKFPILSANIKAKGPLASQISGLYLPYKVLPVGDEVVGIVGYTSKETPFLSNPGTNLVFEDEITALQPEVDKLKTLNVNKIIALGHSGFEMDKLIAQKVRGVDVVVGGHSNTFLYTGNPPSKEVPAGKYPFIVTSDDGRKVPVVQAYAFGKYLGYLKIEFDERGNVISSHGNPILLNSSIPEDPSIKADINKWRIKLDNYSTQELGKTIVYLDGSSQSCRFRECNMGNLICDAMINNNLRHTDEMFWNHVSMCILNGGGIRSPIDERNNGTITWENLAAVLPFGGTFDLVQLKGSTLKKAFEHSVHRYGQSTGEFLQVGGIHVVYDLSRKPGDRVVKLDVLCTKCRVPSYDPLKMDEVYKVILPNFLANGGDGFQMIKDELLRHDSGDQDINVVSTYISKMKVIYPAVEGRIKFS
Outline: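 Human CD73 (4 ng/ml final) was incubated with 50 μM CMP in 25 mM Tris-HCl pH 7.4, 0.005% Brij-35 for 20 min at RT. Reactions were stopped with malachite green reagent and absorbance was read at 620 nm. IC50 came from a 4-parameter logistic fit.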

[2] = target: T2, CD73 on U138 neuroglioma cells (Homo sapiens, UniProt P21589); test: Inhibition of Ecto-5′-Nucleotidase Activity in U138 Neuroglioma Cells (Assay 2); assay type: cell-based; settings: 50 μM CMP, 2 hr at 37° C., malachite green readout, read-out: Assay 2: IC50, inhibition of ecto-5′-nucleotidase activity in U138 neuroglioma cells
T2 construct: U138 neuroglioma cells, which express CD73 on their surface; endogenous in cells; host or cells: U138 neuroglioma cells (ATCC)
T2 sequence (P21589 27-549): T1 sequence (P21589 27-549)
Procedure: Inhibition of Ecto-5′-Nucleotidase Activity in U138 Neuroglioma Cells (Assay 2)
U138 cells were obtained from the American Type Culture Collection (ATCC) (Manassas, Va.), and cultured in complete growth media (DMEM, 10% FBS, 1 mM L-glutamine, 100 U penicillin-streptomycin) at 37° C., 5% CO2. The day before the experiment, cells were seeded at 2,500 cells/well in 100 μL of complete media into 96-well plates. Cells were washed twice with 200 μL of assay buffer (20 mM HEPES, pH 7.4, 137 mM NaCl, 5.4 mM KCl, 1.3 mM CaCl2, 4.2 mM NaHCO3, 1 mg/mL glucose) to remove residual inorganic phosphate. After washing, assays contained serial dilutions of test compounds and 50 μM of cytidine-5′-monophosphate (CMP) in a total volume of 200 μL of assay buffer, with a final DMSO concentration ≤0.1%. After 2 hr at 37° C., 5% CO2, 100 μL of supernatant was removed from the cells and the concentration of inorganic phosphate was determined using malachite green reagent. IC50 values for test compounds were determined from nonlinear regression fits of the data using XLfit (IDBS).

Q: With `Nc1nc(Cl)nc2c1ncn2[C@@H]1O[C@H](COC(C(=O)O)P(=O)(O)O)[C@@H](O)[C@H]1O` (single isomer, unassigned) [Example 61] as the compound, how does the pIC50 [1] read?
A: > 7.00

Q: What about the pIC50 [2] of the same compound?
A: > 7.00

Q: What does the source list for `Cc1nc(N)c2ncn([C@@H]3O[C@H](COC(C(=O)O)P(=O)(O)O)[C@@H](O)[C@H]3O)c2n1` (single isomer, unassigned) [Example 69a]?
A: pIC50 [1]: 6.00 to 7.00; pIC50 [2]: < 6.00

Q: With `CCOC(=O)[C@H](OC[C@H]1C[C@@H](n2cnc3cccc(Cl)c3c2=O)[C@H](O)[C@@H]1O)P(=O)(O)O` (single isomer, unassigned) [Example 70] as the compound, how does the pIC50 [1] read?
A: 6.00 to 7.00

Q: What about the pIC50 [2] of the same compound?
A: < 6.00

Q: Which results are given for `CCOC(=O)[C@H](OC[C@H]1C[C@@H](n2cnc3cccc(Br)c3c2=O)[C@H](O)[C@@H]1O)P(=O)(O)O` (single isomer, unassigned) [Example 72]?
A: pIC50 [1]: 6.00 to 7.00; pIC50 [2]: < 6.00

Q: How did the pIC50 [1] turn out when `CCOC(=O)C(OC[C@H]1C[C@@H](n2cnc3c(N)nc(Cl)nc32)[C@H](O)[C@@H]1O)P(=O)(O)O` (single isomer, unassigned) [Example 76] was run?
A: > 7.00

Q: And the pIC50 [2]?
A: > 7.00

Q: `CCOC(=O)C(OC[C@H]1C[C@@H](n2cnc3c(N)nc(Cl)nc32)[C@H](O)[C@@H]1O)P(=O)(O)O` (single isomer, unassigned) [Example 76a] was tested. Which pIC50 [1] did it give?
A: 6.00 to 7.00

Q: What about the pIC50 [2] of the same compound?
A: 6.00 to 7.00

Q: `CCOC(=O)C(OC[C@H]1C[C@@H](n2nnc3c(N)nc(Cl)nc32)[C@H](O)[C@@H]1O)P(=O)(O)O` (single isomer, unassigned) [Example 77] was tested. Which pIC50 [1] did it give?
A: > 7.00

Q: And the pIC50 [2]?
A: 6.00 to 7.00

Q: What does the source list for `CCOC(=O)C(OC[C@H]1C[C@@H](n2nnc3c(N)nc(Br)nc32)[C@H](O)[C@@H]1O)P(=O)(O)O` (single isomer, unassigned) [Example 77a]?
A: pIC50 [1]: > 7.00; pIC50 [2]: 6.00 to 7.00

Q: `CC(C)(C)OC(=O)C(OC[C@H]1C[C@@H](n2cnc3c(N)nc(Cl)nc32)[C@H](O)[C@@H]1O)P(=O)(O)O` (single isomer, unassigned) [Example 78] was tested. Which pIC50 [1] did it give?
A: > 7.00

Q: What about the pIC50 [2] of the same compound?
A: 6.00 to 7.00

Q: What does the source list for `CC(C)(C)OC(=O)C(OC[C@H]1C[C@@H](n2cnc3c(N)nc(Cl)nc32)[C@H](O)[C@@H]1O)P(=O)(O)O` (single isomer, unassigned) [Example 78a]?
A: pIC50 [1]: 6.00 to 7.00; pIC50 [2]: < 6.00

Q: With `CCOC(=O)[C@](CC(=O)O)(OC[C@H]1O[C@@H](n2cnc3c(N)nc(F)nc32)[C@H](O)[C@@H]1O)P(=O)(O)O` (single isomer, unassigned) [Example 79] as the compound, how does the pIC50 [1] read?
A: 6.00 to 7.00

Q: And the pIC50 [2]?
A: < 6.00

Q: How did the pIC50 [1] turn out when `CCN(CC)C(=O)[C@@H](OC[C@H]1O[C@@H](n2cnc3c(N)nc(Cl)nc32)[C@H](O)[C@@H]1O)P(=O)(O)O` (single isomer, unassigned) [Example 82] was run?
A: > 7.00

Q: And the pIC50 [2]?
A: 6.00 to 7.00

Q: What does the source list for `CCN(CC)C(=O)[C@H](OC[C@H]1O[C@@H](n2cnc3c(N)nc(Cl)nc32)[C@H](O)[C@@H]1O)P(=O)(O)O` (single isomer, unassigned) [Example 82a]?
A: pIC50 [1]: > 7.00; pIC50 [2]: 6.00 to 7.00

Q: How did the pIC50 [1] turn out when `CCOC(=O)C(OC[C@H]1O[C@@H](n2cnc3ccc(Cl)nc32)[C@H](O)[C@@H]1O)P(=O)(O)O` (single isomer, unassigned) [Example 87] was run?
A: > 7.00

Q: And the pIC50 [2]?
A: 6.00 to 7.00

Q: How did the pIC50 [1] turn out when `CNc1nc(Cl)nc2c1ncn2[C@@H]1O[C@H](COC(C(F)(F)F)P(=O)(O)O)[C@@H](O)[C@H]1O` (single isomer, unassigned) [Example 100] was run?
A: 6.00 to 7.00

Q: And the pIC50 [2]?
A: > 7.00

Q: Which results are given for `CNc1nc(Cl)nc2c1ncn2[C@@H]1O[C@H](COC(C(F)(F)F)P(=O)(O)O)[C@@H](O)[C@H]1O` (single isomer, unassigned) [Example 100a]?
A: pIC50 [1]: > 7.00; pIC50 [2]: > 7.00

Q: `CNc1nc(Cl)nc2c1ncn2[C@@H]1O[C@H](COC(C)(C(=O)O)C(=O)O)[C@@H](O)[C@H]1O` [Example 2, (2-(((2R,3S,4R,5R)-5-(2-chloro-6-(methylamino)-9H-purin-9-yl)-3,4-dihydroxytetrahydrofuran-2-yl)methoxy)-2-methylmalonic Acid)] was tested. Which pIC50 [1] did it give?
A: 6.00 to 7.00

Q: And the pIC50 [2]?
A: 6.00 to 7.00

Q: What does the source list for `Nc1nc(Cl)nc2c1ncn2[C@@H]1O[C@H](COC(C(=O)O)C(=O)O)[C@@H](O)[C@H]1O` [Example 3, 2-(((2R,3S,4R,5R)-5-(6-amino-2-chloro-9H-purin-9-yl)-3,4-dihydroxytetrahydrofuran-2-yl)methoxy)malonic acid]?
A: pIC50 [1]: > 7.00; pIC50 [2]: 6.00 to 7.00

Q: Which results are given for `Nc1nc(Cl)nc2c1ncn2[C@@H]1O[C@H](COC(Cc2ccc(F)cc2)(C(=O)O)C(=O)O)[C@@H](O)[C@H]1O` [Example 4, 2-(((2R,3S,4R,5R)-5-(6-amino-2-chloro-9H-purin-9-yl)-3,4-dihydroxytetrahydrofuran-2-yl)methoxy)-2-(4-fluorobenzyl)malonic acid]?
A: pIC50 [1]: > 7.00; pIC50 [2]: > 7.00

Q: `COCC(OC[C@H]1O[C@@H](n2cnc3c(N)nc(Cl)nc32)[C@H](O)[C@@H]1O)(C(=O)O)C(=O)O` [Example 5, 2-(((2R,3S,4R,5R)-5-(6-amino-2-chloro-9H-purin-9-yl)-3,4-dihydroxytetrahydrofuran-2-yl)methoxy)-2-(methoxymethyl)malonic acid] was tested. Which pIC50 [1] did it give?
A: > 7.00

Q: What about the pIC50 [2] of the same compound?
A: > 7.00

Q: `Nc1nc(Cl)nc2c1ncn2[C@@H]1O[C@H](COC(COCc2ccccc2)(C(=O)O)C(=O)O)[C@@H](O)[C@H]1O` [Example 6, 2-(((2R,3S,4R,5R)-5-(6-amino-2-chloro-9H-purin-9-yl)-3,4-dihydroxytetrahydrofuran-2-yl)methoxy)-2-((benzyloxy)methyl)malonic acid] was tested. Which pIC50 [1] did it give?
A: > 7.00

Q: What about the pIC50 [2] of the same compound?
A: > 7.00

Q: What does the source list for `Nc1nc(Cl)nc2c1ncn2[C@@H]1O[C@H](COC(Cc2ccccc2)(C(=O)O)C(=O)O)[C@@H](O)[C@H]1O` [Example 7, 2-(((2R,3S,4R,5R)-5-(6-amino-2-chloro-9H-purin-9-yl)-3,4-dihydroxytetrahydrofuran-2-yl)methoxy)-2-benzylmalonic acid]?
A: pIC50 [1]: > 7.00; pIC50 [2]: > 7.00

Q: How did the pIC50 [1] turn out when `Nc1nc(Cl)nc2c1ncn2[C@@H]1O[C@H](CO[C@H](C(=O)OCc2ccccc2)P(=O)(O)O)[C@@H](O)[C@H]1O` [Example 16a, ((S)-1-(((2R,3S,4R,5R)-5-(6-amino-2-chloro-9H-purin-9-yl)-3,4-dihydroxytetrahydrofuran-2-yl)methoxy)-2-(benzyloxy)-2-oxoethyl)phosphonic Acid] was run?
A: 6.00 to 7.00

Q: And the pIC50 [2]?
A: < 6.00

Q: How did the pIC50 [1] turn out when `CC(=O)NNC(=O)C(OC[C@H]1O[C@@H](n2cnc3c(N)nc(Cl)nc32)[C@H](O)[C@@H]1O)P(=O)(O)O` (stereo partly drawn) [Example 20, (2-(2-acetylhydrazinyl)-1-(((2R,3S,4R,5R)-5-(6-amino-2-chloro-9H-purin-9-yl)-3,4-dihydroxytetrahydrofuran-2-yl)methoxy)-2-oxoethyl)phosphonic Acid] was run?
A: > 7.00

Q: What about the pIC50 [2] of the same compound?
A: 6.00 to 7.00

Q: `CCNc1nc(Cl)nc2c1ncn2[C@@H]1O[C@H](CO[C@@](C)(C(=O)OCC)P(=O)(O)O)[C@@H](O)[C@H]1O` [Example 29, ((R)-2-(((2R,3S,4R,5R)-5-(2-chloro-6-(ethylamino)-9H-purin-9-yl)-3,4-dihydroxytetrahydrofuran-2-yl)methoxy)-1-ethoxy-1-oxopropan-2-yl)phosphonic Acid] was tested. Which pIC50 [1] did it give?
A: > 7.00

Q: What about the pIC50 [2] of the same compound?
A: > 7.00
